The assay addresses T1, recombinant human-MT1 receptor (Homo sapiens, UniProt P48039).
T1 construct: expressed in transfected cells; host or cells: unnamed cell line stably overexpressing human MT1, co-expressing mitochondrial apoaequorin and Gα16
The assay is described as follows: In vitro MT1 screening, agonist activity (AequoScreen aequorin luminescence). The class given is cell-based. The conditions noted are these: percentage of activity relative to the reference agonist at the EC100 concentration; for activation at 0.001 µM: read-out: Agonism percentages of MT1, 1 nM; for activation at 0.1 µM: read-out: Agonism percentages of MT1, 100 nM. The text has this:
To proceed with compound screening over MT1 receptor, a cell line characterised by a stable overexpression of recombinant human-MT1 receptor was used. This line co-expresses mitochondrial apoaequorin and subunit Gα16.
Subunit Gα16 belongs to […], in which intracelular signal transduction is produced via phospholipase (PLC). Activation of PLC produces an increment of inositol-triphosphate levels and intracellular calcium levels. This increment in calcium levels is, therefore, independent and full compatible with the signal transduction of MT1 receptor.
After binding to calcium, aequorin carries out the oxidation of colenterazine to colenteramide, a luminescent reaction.
Assay protocol for agonist screening consists in an overnight incubation of cells and colenterazine, being performed by an AequoScreen™ system instrument, PerkinElmer, USA. After that this mixture was injected over a plate that contains the solution of the compounds to screen and luminescence was immediately read. Only in case of antagonism screening, after 15-30 min of the first injection the reference agonist was added in the same well, and then luminescence was measured.
Agonist activity was calculated as percentage of activity relative to the reference agonist at the EC100 concentration. Activity of antagonists was expressed as the inhibition percentage over the activity of reference agonist at its EC80, concentration.

The source of these data is patent US8227501B2, “1,6-dihydro-2H-3-oxa-6-aza-as-indacene compounds” (Ferrer Internacional, S.A., priority 2008, dated 2012).

T1 sequence (P48039 whole entry): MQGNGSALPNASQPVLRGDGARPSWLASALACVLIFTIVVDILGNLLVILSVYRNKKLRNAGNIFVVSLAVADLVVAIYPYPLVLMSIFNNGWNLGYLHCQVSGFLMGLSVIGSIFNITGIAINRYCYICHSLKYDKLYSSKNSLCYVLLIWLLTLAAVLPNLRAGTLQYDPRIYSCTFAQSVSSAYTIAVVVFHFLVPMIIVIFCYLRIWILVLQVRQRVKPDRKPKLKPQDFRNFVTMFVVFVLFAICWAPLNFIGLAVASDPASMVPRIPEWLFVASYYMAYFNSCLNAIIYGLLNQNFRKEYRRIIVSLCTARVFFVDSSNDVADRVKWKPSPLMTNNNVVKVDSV

Take `CCCC(=O)NCCc1c[nH]c2cc(F)c3c(c12)CCO3` [Compound 15, N-[2-(4-Fluoro-1,6-dihydro-2H-3-oxa-6-aza-as-indacen-8-yl)-ethyl]-butiramide]: for the setting “1 nM compound”, the “Agonism percentages of MT1, 1 nM” value is recorded as 43.0%. Also, where the note is “100 nM compound”, the “Agonism percentages of MT1, 100 nM” value is listed as 108.2%.
With `CC(=O)NCCc1c[nH]c2cc(F)c3c(c12)CCO3` [Compound 13, N-[2-(4-Fluoro-1,6-dihydro-2H-3-oxa-6-aza-as-indacen-8-yl)-ethyl]-acetamide], the activation at 0.001 µM (1 nM compound) is 37.7%. In addition, the activation at 0.1 µM (100 nM compound) came to 92.9%.
As for `CC1Cc2c(c(F)cc3[nH]cc(CCNC(=O)C(C)C)c23)O1` (stereo not shown) [Compound 26, N-[2-(4-Fluoro-2-methyl-1,6-dihydro-2H-3-oxa-6-aza-as-indacen-8-yl)-ethyl]-isobutyramide], for the setting “1 nM compound”, the activation at 0.001 µM came out at 25.7%. Moreover, for the setting “100 nM compound”, the activation at 0.1 µM was determined as 84.8%.
On to `CCC(=O)NCC(C)c1c[nH]c2cc(F)c3c(c12)CC(C)O3` (stereo not shown) [Compound 20, N-[2-(4-Fluoro-2-methyl-1,6-dihydro-2H-3-oxa-6-aza-as-indacen-8-yl)-propyl]-propionamide], for which, for the setting “1 nM compound”, the activation at 0.001 µM came out at 30.2%. Further, the activation at 0.1 µM (100 nM compound) is 94.3%.
In the case of `CCC(=O)NCCc1c[nH]c2cc(F)c3c(c12)CC(C)O3` (stereo not shown) [Compound 23, N-[2-(4-Fluoro-2-methyl-1,6-dihydro-2H-3-oxa-6-aza-as-indacen-8-yl)-ethyl]-propionamide], the activation at 0.001 µM (1 nM compound) is 39.1%. Also, the activation at 0.1 µM (100 nM compound) turned out to be 99.7%.
With `CC(=O)NCC(C)c1c[nH]c2cc(F)c3c(c12)CC(C)O3` (stereo not shown) [Compound 21, N-[2-(4-Fluoro-2-methyl-1,6-dihydro-2H-3-oxa-6-aza-as-indacen-8-yl)-propyl]-acetamide], the activation at 0.001 µM (1 nM compound) stood at 43.2%. The activation at 0.1 µM (100 nM compound) came out at 92.6%.
Consider `COC(=O)NCCc1c[nH]c2cc(F)c3c(c12)CC(C)O3` (stereo not shown) [Compound 29, [2-(4-Fluoro-2-methyl-1,6-dihydro-2H-3-oxa-6-aza-as-indacen-8-yl)-ethyl]-carbamic acid methyl ester], for which the activation at 0.001 µM (1 nM compound) was 17.4%. Where the note is “100 nM compound”, the activation at 0.1 µM was determined as 77.3%.
For the compound `CC1Cc2c(c(F)cc3[nH]cc(C(C)CNC(=O)C(F)(F)F)c23)O1` (stereo not shown) [Compound 38, 2,2,2-Trifluoro-N-[2-(4-fluoro-2-methyl-1,6-dihydro-2H-3-oxa-6-aza-as-indacen-8-yl)-propyl]-acetamide], the activation at 0.001 µM (1 nM compound) was found to be 36.9%. The activation at 0.1 µM (100 nM compound) was found to be 101%.
As to `CC1Cc2c(c(F)cc3[nH]cc(CCNC(=O)C4CC4)c23)O1` (stereo not shown) [Compound 27, Cyclopropanecarboxylic acid [2-(4-fluoro-2-methyl-1,6-dihydro-2H-3-oxa-6-aza-as-indacen-8-yl)-ethyl]-amide], the activation at 0.001 µM (1 nM compound) came to 33.8%. Where the note is “100 nM compound”, the activation at 0.1 µM amounted to 91.1%.
In the same order, the values of `CCCC(=O)NCC(C)c1c[nH]c2cc(F)c3c(c12)CC(C)O3` (stereo not shown) [Compound 19, N-[2-(4-Fluoro-2-methyl-1,6-dihydro-2H-3-oxa-6-aza-as-indacen-8-yl)-propyl]-butyramide] are 27.8% and 96.8%.
In the same order, the values of `CC(C)CC(=O)NCCc1c[nH]c2cc(F)c3c(c12)CC(C)O3` (stereo not shown) [Compound 31, N-[2-(4-Fluoro-2-methyl-1,6-dihydro-2H-3-oxa-6-aza-as-indacen-8-yl)-ethyl]-3-methyl-butyramide] are 22.3% and 90.4%.
In the case of `CC1Cc2c(c(F)cc3[nH]cc(CCNC(=O)C(C)F)c23)O1` (stereo not shown) [Compound 32, 2-Fluoro-N-[2-(4-fluoro-2-methyl-1,6-dihydro-2H-3-oxa-6-aza-as-indacen-8-yl)-ethyl]-propionamide], for the setting “1 nM compound”, the activation at 0.001 µM was 38.6%. Also, the activation at 0.1 µM (100 nM compound) worked out at 93.1%.
In the same order, the values of `CCC(=O)NCC[C@@H]1CCc2ccc3c(c21)CCO3` [Ramelteon, N-[2-[(8S)-1,6,7,8-tetrahydro-2H-indeno[5,4-b]furan-8-yl)ethyl]propionamide, reference compound] are 47.4% and 118%.
Consider `CCOC(=O)NCCc1c[nH]c2cc(F)c3c(c12)CC(C)O3` (stereo not shown) [Compound 30, [2-(4-Fluoro-2-methyl-1,6-dihydro-2H-3-oxa-6-aza-as-indacen-8-yl)-ethyl]-carbamic acid ethyl ester], for which the activation at 0.001 µM (1 nM compound) worked out at 7.1%. Besides, where the note is “100 nM compound”, the activation at 0.1 µM stood at 68.1%.
On the same counts, the results for `CCOC(=O)NCC(C)c1c[nH]c2cc(F)c3c(c12)CC(C)O3` (stereo not shown) [Compound 41, [2-(4-Fluoro-2-methyl-1,6-dihydro-2H-3-oxa-6-aza-as-indacen-8-yl)-propyl]-carbamic acid ethyl ester] are 13.1% and 78.9%.
Turning to `CCCCC(=O)NCC(C)c1c[nH]c2cc(F)c3c(c12)CC(C)O3` (stereo not shown) [Compound 39, Pentanoic acid [2-(4-fluoro-2-methyl-1,6-dihydro-2H-3-oxa-6-aza-as-indacen-8-yl)-propyl]-amide], the activation at 0.001 µM (1 nM compound) amounted to 24.6%. Further, under “100 nM compound”, the activation at 0.1 µM was determined as 91.4%.
`CC1Cc2c(c(F)cc3[nH]cc(C(C)CNC(=O)C(C)F)c23)O1` (stereo not shown) [Compound 43, 2-Fluoro-N-[2-(4-fluoro-2-methyl-1,6-dihydro-2H-3-oxa-6-aza-as-indacen-8-yl)-propyl]-propionamide]: the activation at 0.001 µM (1 nM compound) was 30.6%. Moreover, under “100 nM compound”, the activation at 0.1 µM came to 92.8%.
Consider `CC(=O)NCCc1c[nH]c2cc(F)c3c(c12)CC(C)O3` (stereo not shown) [Compound 22, N-[2-(4-Fluoro-2-methyl-1,6-dihydro-2H-3-oxa-6-aza-as-indacen-8-yl)-ethyl]-acetamide], for which the activation at 0.001 µM (1 nM compound) came out at 50.5%. Moreover, the activation at 0.1 µM (100 nM compound) was determined as 96.8%.
For the compound `CC(C)C(=O)NCCc1c[nH]c2cc(F)c3c(c12)CCO3` [Compound 16, N-[2-(4-Fluoro-1,6-dihydro-2H-3-oxa-6-aza-as-indacen-8-yl)-ethyl]-isobutyramide], where the note is “1 nM compound”, the activation at 0.001 µM worked out at 23%. Also, the activation at 0.1 µM (100 nM compound) is 82.3%.
Consider `CCNC(=O)NCCc1c[nH]c2cc(F)c3c(c12)CC(C)O3` (stereo not shown) [Compound 33, 1-Ethyl-3-[2-(4-fluoro-2-methyl-1,6-dihydro-2H-3-oxa-6-aza-as-indacen-8-yl)-ethyl]-urea], for which the activation at 0.001 µM (1 nM compound) came to 26.6%. Besides, under “100 nM compound”, the activation at 0.1 µM is 87.5%.
As to `COC(=O)NCC(C)c1c[nH]c2cc(F)c3c(c12)CC(C)O3` (stereo not shown) [Compound 40, [2-(4-Fluoro-2-methyl-1,6-dihydro-2H-3-oxa-6-aza-as-indacen-8-yl)-propyl]-carbamic acid methyl ester], the activation at 0.001 µM (1 nM compound) was 24%. Further, the activation at 0.1 µM (100 nM compound) was determined as 95.2%.
Consider `CCCCC(=O)NCCc1c[nH]c2cc(F)c3c(c12)CC(C)O3` (stereo not shown) [Compound 25, Pentanoic acid [2-(4-fluoro-2-methyl-1,6-dihydro-2H-3-oxa-6-aza-as-indacen-8-yl)-ethyl]-amide], for which, under “1 nM compound”, the activation at 0.001 µM worked out at 31.9%. For the same compound, the activation at 0.1 µM (100 nM compound) amounted to 98%.
`CCCC(=O)NCCc1c[nH]c2cc(F)c3c(c12)CC(C)O3` (stereo not shown) [Compound 24, N-[2-(4-Fluoro-2-methyl-1,6-dihydro-2H-3-oxa-6-aza-as-indacen-8-yl)-ethyl]-butyramide]: under “1 nM compound”, the activation at 0.001 µM was determined as 42.1%. Under “100 nM compound”, the activation at 0.1 µM worked out at 99.8%.
Consider `CC1Cc2c(c(F)cc3[nH]cc(CCNC(=O)C(F)(F)F)c23)O1` (stereo not shown) [Compound 28, 2,2,2-Trifluoro-N-[2-(4-fluoro-2-methyl-1,6-dihydro-2H-3-oxa-6-aza-as-indacen-8-yl)-ethyl]-acetamide], for which, under “1 nM compound”, the activation at 0.001 µM stood at 36.1%. The activation at 0.1 µM (100 nM compound) is 97.2%.
In the same order, the values of `O=C(NCCc1c[nH]c2cc(F)c3c(c12)CCO3)C(F)(F)F` [Compound 18, 2,2,2-Trifluoro-N-[2-(4-fluoro-1,6-dihydro-2H-3-oxa-6-aza-as-indacen-8-yl)-ethyl]-acetamide] are 59.8% and 105%.
Take `O=C(NCCc1c[nH]c2cc(F)c3c(c12)CCO3)C1CC1` [Compound 17, Cyclopropanecarboxylic acid [2-(4-fluoro-1,6-dihydro-2H-3-oxa-6-aza-as-indacen-8-yl)-ethyl]-amide]: the activation at 0.001 µM (1 nM compound) was 43.8%. Besides, under “100 nM compound”, the activation at 0.1 µM came out at 93.2%.
As to `CCNC(=O)NCC(C)c1c[nH]c2cc(F)c3c(c12)CC(C)O3` (stereo not shown) [Compound 42, 1-Ethyl-3-[2-(4-fluoro-2-methyl-1,6-dihydro-2H-3-oxa-6-aza-as-indacen-8-yl)-propyl]-urea], for the setting “1 nM compound”, the activation at 0.001 µM worked out at 19.7%. Moreover, the activation at 0.1 µM (100 nM compound) was 87.8%.
For `CC1Cc2c(c(F)cc3[nH]cc(C(C)CNC(=O)C(C)(C)C)c23)O1` (stereo not shown) [Compound 37, N-[2-(4-Fluoro-2-methyl-1,6-dihydro-2H-3-oxa-6-aza-as-indacen-8-yl)-propyl]-2,2-dimethyl-propionamide], the activation at 0.001 µM (1 nM compound) came out at 6.6%. Also, the activation at 0.1 µM (100 nM compound) was determined as 52.8%.
In the case of `CC1Cc2c(c(F)cc3[nH]cc(C(C)CNC(=O)C(C)C)c23)O1` (stereo not shown) [Compound 34, N-[2-(4-Fluoro-2-methyl-1,6-dihydro-2H-3-oxa-6-aza-as-indacen-8-yl)-propyl]-isobutyramide], the activation at 0.001 µM (1 nM compound) is 18.4%. Also, for the setting “100 nM compound”, the activation at 0.1 µM was determined as 95.8%.
